Source: ChEMBL document CHEMBL4376858, “Structure-Activity Relationships of Novel Thiazole-Based Modafinil Analogues Acting at Monoamine Transporters” (J Med Chem, 2020)
pIC50: −log10 of the molar value.

How the values were obtained:
[1] = target: Sodium-dependent noradrenaline transporter (Homo sapiens, UniProt P23975); test: Inhibition of wild type human NET expressed in HEK293 cells assessed as inhibition of [3H]-MPP+ reuptake preincubated for 5 mins followed by [3H]MPP+ addition and measured after 3 mins by liquid scintillation counting analysis; assay type: cell-based; settings: for IC50: hek293; for pIC50: read-out: IC50
Sodium-dependent noradrenaline transporter, sequence (P23975 whole entry): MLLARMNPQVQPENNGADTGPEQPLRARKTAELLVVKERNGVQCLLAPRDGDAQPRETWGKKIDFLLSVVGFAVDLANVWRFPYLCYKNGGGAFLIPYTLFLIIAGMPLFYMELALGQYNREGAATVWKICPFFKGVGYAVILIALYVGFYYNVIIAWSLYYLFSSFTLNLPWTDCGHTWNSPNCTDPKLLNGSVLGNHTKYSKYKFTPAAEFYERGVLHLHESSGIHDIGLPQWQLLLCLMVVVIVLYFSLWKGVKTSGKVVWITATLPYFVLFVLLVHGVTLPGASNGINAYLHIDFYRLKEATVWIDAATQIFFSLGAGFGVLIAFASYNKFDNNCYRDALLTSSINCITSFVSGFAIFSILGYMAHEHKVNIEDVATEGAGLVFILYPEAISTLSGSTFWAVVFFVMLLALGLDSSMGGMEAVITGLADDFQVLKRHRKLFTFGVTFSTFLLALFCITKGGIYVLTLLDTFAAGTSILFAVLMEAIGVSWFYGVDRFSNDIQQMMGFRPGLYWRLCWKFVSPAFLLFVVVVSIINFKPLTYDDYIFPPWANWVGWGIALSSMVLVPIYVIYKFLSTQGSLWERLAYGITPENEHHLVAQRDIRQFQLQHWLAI

[2] = target: Sodium-dependent dopamine transporter (Homo sapiens, UniProt Q01959); test: Inhibition of wild type human dopamine transporter expressed in HEK293 cells assessed as inhibition of [3H]dopamine reuptake preincubated for 5 mins followed by [3H]dopamine addition and measured after 1 min by liquid scintillation analysis; assay type: cell-based; settings: for pIC50: read-out: IC50; for IC50: hek293
Sodium-dependent dopamine transporter, sequence (Q01959 whole entry): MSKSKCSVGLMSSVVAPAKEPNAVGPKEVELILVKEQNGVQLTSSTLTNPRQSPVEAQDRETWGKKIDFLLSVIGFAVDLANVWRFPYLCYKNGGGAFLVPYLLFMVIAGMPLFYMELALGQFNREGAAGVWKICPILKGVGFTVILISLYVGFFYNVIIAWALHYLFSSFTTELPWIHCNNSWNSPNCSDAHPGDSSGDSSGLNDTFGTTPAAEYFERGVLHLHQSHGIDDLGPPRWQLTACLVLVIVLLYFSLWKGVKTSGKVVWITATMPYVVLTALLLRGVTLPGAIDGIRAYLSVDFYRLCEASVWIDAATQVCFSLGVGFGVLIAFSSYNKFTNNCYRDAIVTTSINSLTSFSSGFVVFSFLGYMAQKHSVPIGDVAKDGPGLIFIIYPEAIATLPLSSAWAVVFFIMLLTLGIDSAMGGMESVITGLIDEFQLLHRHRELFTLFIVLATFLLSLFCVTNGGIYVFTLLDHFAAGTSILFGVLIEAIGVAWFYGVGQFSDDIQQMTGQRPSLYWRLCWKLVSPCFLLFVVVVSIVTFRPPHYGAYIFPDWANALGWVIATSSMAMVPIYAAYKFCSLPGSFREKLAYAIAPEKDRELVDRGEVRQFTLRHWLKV

[3] = target: Sodium-dependent serotonin transporter (Homo sapiens, UniProt P31645); assay type: cell-based, HEK293; settings: for IC50: hek293; for pIC50: read-out: IC50
Sodium-dependent serotonin transporter, sequence (P31645 whole entry): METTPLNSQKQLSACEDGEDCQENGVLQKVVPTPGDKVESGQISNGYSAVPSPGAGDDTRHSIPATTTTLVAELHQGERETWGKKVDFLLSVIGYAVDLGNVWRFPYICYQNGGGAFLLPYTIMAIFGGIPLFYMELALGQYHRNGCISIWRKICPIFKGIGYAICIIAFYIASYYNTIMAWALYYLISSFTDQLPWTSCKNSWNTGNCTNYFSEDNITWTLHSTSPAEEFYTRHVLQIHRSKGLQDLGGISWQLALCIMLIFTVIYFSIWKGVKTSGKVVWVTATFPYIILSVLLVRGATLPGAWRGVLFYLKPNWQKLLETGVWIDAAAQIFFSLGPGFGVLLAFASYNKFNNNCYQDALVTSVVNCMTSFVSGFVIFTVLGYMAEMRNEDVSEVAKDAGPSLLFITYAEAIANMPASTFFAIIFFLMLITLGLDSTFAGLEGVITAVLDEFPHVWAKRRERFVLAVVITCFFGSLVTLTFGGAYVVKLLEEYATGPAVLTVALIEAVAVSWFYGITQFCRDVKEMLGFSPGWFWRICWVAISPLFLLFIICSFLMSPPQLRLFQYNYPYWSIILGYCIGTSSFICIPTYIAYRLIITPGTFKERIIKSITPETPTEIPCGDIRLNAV
Description: Inhibition of wild type human SERT expressed in HEK293 cells assessed as inhibition of [3H]-5HT reuptake preincubated for 5 mins followed by [3H]5HT addition and measured after 1 min by liquid scintillation counting analysis

| SMILES | IC50 [1] | pIC50 [2] | IC50 [3] | pIC50 [1] | pIC50 [3] | IC50 [2] |
| --- | --- | --- | --- | --- | --- | --- |
| Cc1nc(CC[S+]([O-])C(c2ccccc2)c2ccccc2)cs1 (stereo not drawn) | Not Active | 4.21 | Not Active | – | – | – |
| Cc1ccc([C@@H](c2ccccc2)[S@+]([O-])Cc2cncs2)cc1 | – | 4.71 | – | 4.17 | 3.70 | – |
| [O-][S@@+](Cc1cncs1)[C@@H](c1ccccc1)c1ccc(Br)cc1 | – | 5.80 | Not Active | 3.25 | – | – |
| [O-][S+](Cc1csc(C2CC2)n1)C(c1ccccc1)c1ccccc1 (stereo not drawn) | – | 5.39 | – | 3.16 | 3.36 | – |
| [O-][S+](Cc1cnc(C23CC4CC(CC(C4)C2)C3)s1)C(c1ccccc1)c1ccccc1 (stereo not drawn) | – | – | Not Active | – | – | – |
| Cc1ccc(C(c2ccc(C)cc2)[S+]([O-])Cc2cncs2)cc1 (stereo in doubt; 34b) | – | 3.45 | Not Active | – | – | – |
| [O-][S@@+](Cc1cncs1)[C@@H](c1ccccc1)c1ccc(C(F)(F)F)cc1 | Not Active | 4.40 | Not Active | – | – | – |
| [O-][S@+](Cc1cncs1)[C@@H](c1ccccc1)c1ccc(Br)cc1 | – | 4.65 | Not Active | 3.44 | – | – |
| COc1ccc(C(c2ccc(OC)cc2)[S+]([O-])Cc2csc(C3CC3)n2)cc1 (stereo not drawn) | Not Active | 3.98 | Not Active | – | – | – |
| [O-][S@@+](Cc1cncs1)[C@H](c1ccccc1)c1ccc(Cl)cc1 | – | 5.44 | Not Active | 4.41 | – | – |
| [O-][S+](Cc1csc(C2CC2)n1)C(c1ccc(Cl)cc1)c1ccc(Cl)cc1 (stereo not drawn) | Not Active | 4.85 | Not Active | – | – | – |
| Cc1cnc(C[S+]([O-])C(c2ccccc2)c2ccccc2)s1 (stereo not drawn) | Not Active | 4.18 | Not Active | – | – | – |
| [O-][S@+](Cc1cncs1)[C@H](c1ccccc1)c1ccc(Br)cc1 | – | 5.33 | – | 4.64 | 4.53 | – |
| [O-][S@+](Cc1cncs1)[C@H](c1ccccc1)c1ccc(C(F)(F)F)cc1 | Not Active | – | Not Active | – | – | Not Active |
| COc1ccc(C(c2ccc(OC)cc2)[S+]([O-])Cc2cncs2)cc1 (stereo not drawn) | Not Active | 4.15 | Not Active | – | – | – |
| [O-][S@+](Cc1cncs1)[C@@H](c1ccccc1)c1ccc(C(F)(F)F)cc1 | Not Active | – | Not Active | – | – | Not Active |
| Cc1ccc([C@H](c2ccccc2)[S@+]([O-])Cc2cncs2)cc1 | Not Active | 3.87 | Not Active | – | – | – |
| CC(C)c1nc(C[S+]([O-])C(c2ccccc2)c2ccccc2)cs1 (stereo not drawn) | Not Active | 4.61 | Not Active | – | – | – |
| [O-][S+](Cc1cscn1)C(c1ccc(F)cc1)c1ccc(F)cc1 (stereo not drawn) | Not Active | 5.17 | Not Active | – | – | – |
| [O-][S+](Cc1nccs1)C(c1ccc(Cl)cc1)c1ccc(Cl)cc1 (stereo not drawn) | Not Active | 5.02 | Not Active | – | – | – |
| [O-][S+](Cc1nccs1)C1c2ccccc2-c2ccccc21 (stereo not drawn) | Not Active | – | Not Active | – | – | Not Active |
| Cc1nc(C)c(C[S+]([O-])C(c2ccccc2)c2ccccc2)s1 (stereo not drawn) | Not Active | 4.06 | Not Active | – | – | – |

| SMILES | IC50 [1] | pIC50 [2] | IC50 [3] | pIC50 [1] | pIC50 [3] | IC50 [2] |
| --- | --- | --- | --- | --- | --- | --- |
| [O-][S@@+](Cc1cncs1)C(c1ccc(Cl)cc1)c1ccc(Cl)cc1 | – | 5.39 | Not Active | 4.05 | – | – |
| [O-][S+](Cc1cnc(Cl)s1)C(c1ccccc1)c1ccccc1 (stereo not drawn) | – | 4.61 | Not Active | 3.97 | – | – |
| Cc1ccc(C(c2ccc(C)cc2)[S+]([O-])Cc2cscn2)cc1 (stereo not drawn) | Not Active | 5.14 | Not Active | – | – | – |
| [O-][S@@+](Cc1cncs1)[C@H](c1ccccc1)c1ccc(F)cc1 | – | 5.13 | Not Active | 3.98 | – | – |
| [O-][S@@+](Cc1cncs1)[C@@H](c1ccccc1)c1ccc(Cl)cc1 | – | 5.64 | Not Active | 4.14 | – | – |
| [O-][S@+](Cc1cncs1)C(c1ccc(Cl)cc1)c1ccc(Cl)cc1 | Not Active | 4.42 | Not Active | – | – | – |
| [O-][S@@+](Cc1cncs1)C(c1ccc(F)cc1)c1ccc(F)cc1 | – | 5.28 | Not Active | 4.07 | – | – |
| Cc1ccc(C(c2ccc(C)cc2)[S+]([O-])Cc2cncs2)cc1 (stereo in doubt; 34a) | Not Active | 5.17 | – | – | 3.58 | – |
| [O-][S@+](Cc1cncs1)[C@@H](c1ccccc1)c1ccc(F)cc1 | Not Active | 4.56 | Not Active | – | – | – |
| CCCc1nc(C[S+]([O-])C(c2ccccc2)c2ccccc2)cs1 (stereo not drawn) | Not Active | 4.55 | Not Active | – | – | – |
| COc1ccc([C@H](c2ccccc2)[S@@+]([O-])Cc2cncs2)cc1 | – | 5.42 | Not Active | 3.71 | – | – |
| Cc1ncc(C[S+]([O-])C(c2ccccc2)c2ccccc2)s1 (stereo not drawn) | Not Active | 4.17 | Not Active | – | – | – |
| [O-][S+](Cc1cncs1)C(c1ccc(F)cc1)c1ccc(F)cc1 (racemic) | – | 5.21 | Not Active | 3.92 | – | – |
| [O-][S+](Cc1cncs1)C(c1ccc(Cl)cc1)c1ccc(Cl)cc1 (racemic) | – | 5.38 | – | 4.34 | 3.66 | – |
| Cc1ccc([C@H](c2ccccc2)[S@@+]([O-])Cc2cncs2)cc1 | – | 5.48 | Not Active | 3.79 | – | – |
| COc1ncc(C[S+]([O-])C(c2ccccc2)c2ccccc2)s1 (stereo not drawn) | – | 4.14 | Not Active | 3.86 | – | – |
| Cc1ccc(C(c2ccc(C)cc2)[S+]([O-])Cc2cncs2)cc1 (racemic) | – | 4.98 | – | 3.67 | – | – |
| [O-][S@@+](Cc1cncs1)[C@H](c1ccccc1)c1ccc(C(F)(F)F)cc1 | Not Active | 4.42 | Not Active | – | – | – |
| Cc1ncsc1C[S+]([O-])C(c1ccccc1)c1ccccc1 (stereo not drawn) | Not Active | 4.36 | Not Active | – | – | – |
| [O-][S+](Cc1cscn1)C(c1ccccc1)c1ccc(Br)cc1 (racemic) | – | 5.73 | Not Active | 3.96 | – | – |
| CCCCc1nc(C[S+]([O-])C(c2ccccc2)c2ccccc2)cs1 (stereo not drawn) | – | 4.87 | Not Active | 3.78 | – | – |
| [O-][S@+](Cc1cncs1)[C@@H](c1ccccc1)c1ccc(Cl)cc1 | Not Active | 4.48 | Not Active | – | – | – |

| SMILES | IC50 [1] | pIC50 [2] | IC50 [3] | pIC50 [1] | pIC50 [3] | IC50 [2] |
| --- | --- | --- | --- | --- | --- | --- |
| Cc1nc(CSC(c2ccccc2)c2ccccc2)cs1 | – | 4.04 | Not Active | 3.89 | – | – |
| [O-][S+](Cc1cscn1)C(c1ccccc1)c1ccccc1 (racemic) | Not Active | 5.18 | Not Active | – | – | – |
| Cc1nc(C[S+]([O-])C(c2ccccc2)c2ccccc2)c(C)s1 (stereo not drawn) | Not Active | 4.32 | Not Active | – | – | – |
| [O-][S+](Cc1csc(-c2cccs2)n1)C(c1ccccc1)c1ccccc1 (racemic) | – | 5.16 | Not Active | 3.96 | – | – |
| Cc1ccc(C(c2ccc(C)cc2)[S+]([O-])Cc2csc(C3CC3)n2)cc1 (stereo not drawn) | Not Active | – | Not Active | – | – | Not Active |
| [O-][S@+](Cc1cncs1)[C@H](c1ccccc1)c1ccc(F)cc1 | – | 5.08 | – | 3.64 | 3.84 | – |
| Cc1ccc(C(c2ccc(C)cc2)[S+]([O-])Cc2nccs2)cc1 (stereo not drawn) | Not Active | 4.53 | Not Active | – | – | – |
| Cc1ccc([C@@H](c2ccccc2)[S@@+]([O-])Cc2cncs2)cc1 | Not Active | 5.22 | Not Active | – | – | – |
| [O-][S+](Cc1csc(Cl)n1)C(c1ccccc1)c1ccccc1 (racemic) | Not Active | 5.52 | Not Active | – | – | – |
| CCc1nc(C[S+]([O-])C(c2ccccc2)c2ccccc2)cs1 (stereo not drawn) | Not Active | 4.83 | Not Active | – | – | – |
| [O-][S@+](Cc1cncs1)C(c1ccc(F)cc1)c1ccc(F)cc1 | Not Active | 4.65 | Not Active | – | – | – |
| COc1ccc([C@H](c2ccccc2)[S@+]([O-])Cc2cncs2)cc1 | Not Active | 4.19 | Not Active | – | – | – |
| [O-][S@@+](Cc1cncs1)[C@H](c1ccccc1)c1ccc(Br)cc1 | – | 5.38 | Not Active | 4.17 | – | – |
| [O-][S@+](Cc1cncs1)[C@H](c1ccccc1)c1ccc(Cl)cc1 | – | 5.13 | – | 4.44 | 3.85 | – |
| [O-][S@@+](Cc1cncs1)[C@@H](c1ccccc1)c1ccc(F)cc1 | – | 5.70 | Not Active | 3.89 | – | – |
| [O-][S+](Cc1cscn1)C(c1ccc(Cl)cc1)c1ccc(Cl)cc1 (stereo not drawn) | – | 5.30 | Not Active | 3.97 | – | – |
| COc1ccc([C@@H](c2ccccc2)[S@+]([O-])Cc2cncs2)cc1 | – | 4.44 | – | 3.58 | 4.61 | – |
| CC(C)(C)c1ncc(C[S+]([O-])C(c2ccccc2)c2ccccc2)s1 (stereo not drawn) | Not Active | 4.22 | Not Active | – | – | – |
| Cc1nc(C[S+]([O-])C(c2ccccc2)c2ccccc2)sc1C (stereo not drawn) | – | 4.48 | – | 3.97 | 3.70 | – |
| COc1ccc([C@@H](c2ccccc2)[S@@+]([O-])Cc2cncs2)cc1 | Not Active | 4.91 | – | – | 3.44 | – |
